Measurements reported in patent publication US20030027835A1 (priority 1999, published 2003).
Structures can show the parent of a compound that is named as a salt.

Experiments:
[1] = tested on: sodium currents in rat dorsal root ganglia (DRG) neurons; type: cell-based
[2] = tested on: rabbit corneal reflex; experiment: corneal reflex testing in rabbits (local anesthetic effect); type: in vivo
Excerpt: FIG. 4: Local anesthetic effect of TMB (A) and lidocaine (B) as determined in the rabbit corneal reflex. The values represent the median of percentage of inhibition of corneal reflex calculated for each set of 10 stimulations. The x axis represents time (in minutes) following instillations.*P<0.05; **P<0.01 compared with the control group treated with the vehicle (Mann-Whitney U test).
White New-Zealand male rabbits (CEGAV, Les Hauts Noës, Saint Mars d'Egrenne, France) weighing 1.9-2.7 kg were used. Animals were housed individually in cages placed in an air-conditioned (17-21° C.) animal house kept between 45% and 65% relative humidity and with an artificial day/night cycle (12 h-12 h) with light on at 7.30 am.
Test substances are administered as solutions in sterile water (Baxter, Maurepas, France). The concentrations of test substances are expressed as percentage (weight/volume) of active compound (base form). Each test substance at each concentration is tested on the two eyes of 5 animals (i.e. 10 measurements per substance and per concentration). On the day of the study, animals are placed in restraint cages in a quiet room. Twenty to 30 minutes later, a first measurement of the corneal sensitivity is performed. Any animal presenting a partial or complete corneal insensitivity or any ocular lesion before administration is excluded from the study. Immediately after the first measurement, 2×50 μl of test substances or their vehicle are applied to the cornea. The two instillations were undertaken on each eye at a one-minute interval. Corneal sensitivity is subsequently measured at 5, 10, 20, 30, 40, 50 and 60 minutes following the instillations, and then at 2, 3 and 4 hours after the instillations. Corneal sensitivity is measured by touching gently the center of the cornea with a loop-shape nylon yarn (0.3 mm diameter). For each measurement, this operation is repeated 10 times at regular 2 second intervals. The number of stimulations producing a corneal reflex is noted for each set and for each eye.
Results are expressed as percentage of inhibition of the corneal reflex calculated for each set of 10 stimulations:
% inhibition of corneal reflex=10-(number of stimulations inducing a corneal reflex)×10
For each experimental group, median values are determined. The effects of test compounds are compared with those of the vehicle using a Mann-Withney non-parametric U test at each time of measurement. Areas under curves are calculated over the first 60-minute period following instillation for each animal and each concentration by the trapezoidal method of Bourget et al., 1993. The relative potency of TMB) is compared to that of lidocaine hydrochloride from respective mean areas under curves using a covariance analysis.

[3] = tested on: PGE2-induced hyperalgesia; experiment: PGE2-induced hyperalgesia in the rat (Randall and Selitto test)

CCC(COC(=O)c1cc(OC)c(OC)c(OC)c1)(c1ccccc1)N(C)C.O=C(O)/C=C\C(=O)O (racemic) [Trimebutine, 2-dimethylamino-2-phenylbutyl 3,4,5-trimethoxybenzoate hydrogen maleate]
blocking rate kon [1]: 35-40 10^−3 s^−1 μM^−1
duration of local anesthetic effect ([2]; 0.1% concentration): 20 min
potency relative to lidocaine ([2]; comparison of areas under the curve over first 60 min): 17 fold
duration of complete local anesthesia ([2]; instillation of 0.3% or 1%): more than 60 min
concentration giving first significant local anesthetic effects ([2]; rabbit cornea, instillation): 0.1%
% of analgesic activity ([3]; Trimebutine 100 mg/kg s.c. (T2 of FIG. 5)): 27%

CN1CC[C@]23c4c5ccc(O)c4O[C@H]2[C@@H](O)C=C[C@H]3[C@H]1C5 [Morphine, morphine]
% of analgesic activity ([3]; Morphine 0.3 mg/kg s.c., 30 min before test (T1 of FIG. 5)): 22%
% of analgesic activity ([3]; Morphine 3 mg/kg s.c. (M3 of FIG. 6)): 64%

CCN(CC)CC(=O)Nc1c(C)cccc1C [lidocaine, lidocaine hydrochloride]
duration of complete local anesthetic effect ([2]; 6% concentration): 25 min
inhibition of corneal reflex ([2]; 6% concentration, 60 min after instillation): no more inhibition
local anesthetic activity ([2]; up to the concentration of 0.3%): inactive
